In patent publication US20100168135A1, “Method of Inducing Cleavage of Amyloid Precursor Protein to Form a Novel Fragment” (priority 2008, published 2010):

How the values were obtained:
3xTg-AD mice = assay: Morris water maze in 3xTg-AD mice; format: in vivo, mouse
Description: (§1) 3xTg-AD mice of approximately one year of age were treated for 2 months with ST101. An average dose of 5 mg/kg/day was administered in drinking water (calculated dose, based on mean water consumption). Behavioral effects were tested by assessing performance on the Morris Water Maze. Biochemical effects were examined by measuring brain content of Aβ and APP by ELISA and Western Blot.
Behavioral Effects: Performance of 3xTg-AD Mice in the Morris Water Maze (MWM), adapted from Roozendaal et al., Proc. Natl. Acad. Sci. U.S.A. 100: 1328-1333 (2003).
The MWM tests both spatial memory (i.e. hippocampus dependent) and cued learning (i.e. non-hippocampal) in rodents. The maze is a circular tank filled with opaque water. Mice are placed in the water and must swim to find and escape onto a platform submerged 1.5 cm beneath the surface of the water. The time (in seconds) required to find the platform is recorded. Animals rely on visual cues in the room containing the tank in order to find the platform on successive challenges. Training was conducted daily for seven consecutive days.
Retention of training was assessed twice, 24 and 72 hours after the final training trial. Animals were subjected to a 60-second free swim in the tank with the platform removed. Parameters measured included (1) latency: time required to reach the former platform location and (2) crosses: the number of times the animal swam across the former platform location.

[1] = test system: APP and C-terminal fragments in the brains of 3xTg-AD mice; assay: Western blot of brain extracts with antibody CT20, 2-month treatment (Examples 4 and 5); format: in vivo, mouse; details: antibody CT20, brains of 3xTg-AD mice, 5 mg/kg/day for 2 months
Description: as §1
To attempt to determine at what part in the Aβ processing/release pathway ST101 may be active, a series of Western blot analyses of brain extracts from the same mice were conducted. These Westerns blots examined intact APP as well as products of its post-translational processing and subsequent degradation.
FIG. 4 is a Western blot that depicts APP C-terminal fragments detected by antibody CT20 in the brains of ST101-treated (S) 3xTg-AD mice, relative to untreated (C) 3xTg mice-AD.
FIG. 5 is a Western blot that depicts APP and degradation fragments detected by antibody CT20 in the brains of ST101-treated (S) 3xTg-AD mice, relative to untreated (C) 3xTg-AD mice. “CT20” stands for full length APP species, and “Actin” stands for anti-beta-actin antibody as a protein loading control.

[2] = test system: rodent models of learning and memory; details: cited from earlier work
[3] = test system: extracellular ACh and dopamine; assay: Extracellular ACh and dopamine concentrations in cerebral cortex and hippocampus; format: in vivo
acetylcholine (ACh) = assay: Nicotine-stimulated release of acetylcholine
N2a cells = assay: Aβ production by N2a cultured cells, ELISA of tissue culture medium; format: cell-based, murine; details: 24 hours treatment, vs control
Description: N2a is a murine neuroblastoma cell line that is known to produce amyloid peptides Aβ1-40 and Aβ1-42 in amounts measurable by ELISA assays. These forms of Aβ have been correlated with the pathology in AD brain and Aβ1-42 in particular is postulated to have the ability to block α7 nicotinic receptors and to produce direct neurotoxic effects. N2a cells were treated for 24 hours with ST101 added to the tissue culture medium. Tissue culture medium was collected and analyzed by ELISA for the presence of Aβ.
FIGS. 1A and 1B are bar graphs that depict the effect of the compound ST101 on Aβ production by N2a cells. FIG. 1A is a bar graph that depicts the Aβ concentration in the cell culture medium as a function of ST101 concentration compared to control. FIG. 1B a bar graph that depicts the ratio of Aβ1-42 to Aβ1-40 as a function of ST101 concentration compared to control.

[4] = test system: APP C-terminal fragments in the brains of 3xTg-AD mice; assay: Western blot of brains with antibody CT20, 10-month treatment (Example 7); format: in vivo, mouse; details: antibody CT20, 3xTg-AD mice, 5 or 1 or 0.1 mg/kg/day for 10 months; in some samples
Description: 3xTg-AD mice of approximately 3 months of age were treated for 10 months with ST101. An average dose of 5 or 1 or 0.1 mg/kg/day was administered in drinking water (calculated dose, based on mean water consumption).
FIGS. 7A-C are Western blots that depict APP C-terminal fragments detected by antibody CT20 in the brains of ST101-treated (S) 3xTg-AD mice, relative to untreated (C) 3xTg-AD mice.

[5] = test system: Senescence Accelerated Mouse 8 (SAMP8); details: cited from earlier work
[6] = test system: APP C-terminal fragments in the brains of 3xTg-AD mice; assay: Western blot of brains with antibody 1565-1, 2.5-month treatment (Example 8); format: in vivo, mouse; details: antibody 1565-1, 3xTg-AD mice, 5 mg/kg/day for 2.5 months
Description: 3xTg-AD mice of approximately 12 months of age were treated for 2.5 months with ST101. An average dose of 5 mg/kg/day was administered in drinking water (calculated dose, based on mean water consumption).
FIG. 8 is a Western blot that depicts C-terminal fragments detected by antibody 1565-1 (Epitomics Inc.) in the brains of ST101-treated (S) 3xTg-AD mice, relative to untreated (C) 3xTg mice-AD.

[7] = 5 mg/kg/day for 2 months, at both 24 and 72 hours after training

Q: Which “crosses during retention testing” value (3xTg-AD mice; [7]) does the source give for O=C1N=C2C=CC=CN2C12Cc1ccccc1C2 [ST101, spiro(imidazo[1,2-a]pyridin-2(3H)-one-3,2′-indan)] here?
A: increases in crosses

Q: And the “latency during retention testing” value (3xTg-AD mice; [7])?
A: reductions in latency

Q: What about the “latency on successive days of the training” value (3xTg-AD mice; 5 mg/kg/day in drinking water for 2 months, vs controls) of the same compound?
A: greater reductions in latency

Q: What about the “C83 C-terminal APP fragment” value ([1]; vs untreated) of the same compound?
A: substantial decrease

Q: What about the “C99 C-terminal APP fragment” value ([1]; vs untreated) of the same compound?
A: substantial decrease

Q: And the “major APP degradation intermediate (~50 kDa)” value ([1]; vs untreated)?
A: disappearance or significant reduction

Q: And the “novel, longer C-terminal fragment of about 17 kDa” value ([1]; vs untreated)?
A: appearance

Q: What about the “full-length APP species (band shifts)” value ([1]; some full-length species) of the same compound?
A: slightly lowered molecular weight

Q: What about the “memory deficits induced by chemical amnesic agents” value ([2]; methamphetamine, MK-801, scopolamine) of the same compound?
A: attenuates

Q: What about the age-impaired memory ([2]; rodent models) of the same compound?
A: significantly improves

Q: What about the “extracellular ACh concentrations” value ([3]; cerebral cortex) of the same compound?
A: increases

Q: And the “extracellular concentrations of ACh” value ([3]; hippocampus)?
A: increases

Q: And the “extracellular concentrations of dopamine” value ([3]; hippocampus)?
A: increases

Q: What about the “nicotine-stimulated release of acetylcholine (ACh)” value (acetylcholine (ACh)) of the same compound?
A: potentiates

Q: What about the “Aβ1-40 in cell culture medium” value (N2a cells) of the same compound?
A: without major effects

Q: And the “Aβ1-42 in cell culture medium” value (N2a cells)?
A: significantly reduced

Q: And the “major APP degradation intermediate (~50 kDa)” value [4]?
A: disappearance or significant reduction

Q: And the “novel, longer C-terminal fragment of about 17 kDa” value [4]?
A: appearance

Q: What about the “accumulation of Aβ-like deposits” value ([5]; brain tissue) of the same compound?
A: decreased

Q: And the “learning and memory functions” value [5]?
A: improvement

Q: And the “longer C-terminal fragment of about 17 kDa” value [6]?
A: not observed

Q: What about the “APP C99 fragment” value ([6]; vs untreated) of the same compound?
A: disappearance or significant reduction
